# Columns and labels:
# [1] = Selectivity ratio of IC50 for [Ca2+] antagonistic activity in aorta / IC50 for suppressive effect on contractile force; type: functional
# [2] = Selectivity ratio of IC50 for [Ca2+] antagonistic activity in aorta / IC50 for suppressive effect on rate of contraction; type: functional
# Cavia porcellus [3] = species: Cavia porcellus; experiment: Inhibitory concentration required to suppress the rate of contraction of guinea pig right atria; type: functional
# Cavia porcellus [4] = species: Cavia porcellus; experiment: Inhibitory concentration required to block Ca+2 induced contraction of K+ depolarized guinea pig aorta; type: functional
# Cavia porcellus [5] = species: Cavia porcellus; experiment: Inhibitory concentration required to block Ca+2 induced contraction of K+ depolarized guinea pig taenia cecum; type: functional, Caecum
# Cavia porcellus [6] = species: Cavia porcellus; experiment: Inhibitory concentration required to suppress the contractile force of guinea pig right atria; type: functional
Compound,Ratio [1],Ratio [2],IC50 (Cavia porcellus [3]; read-out: IC50),IC50 (Cavia porcellus [4]),"IC50 (Cavia porcellus [5]; Cavia porcellus, Caecum)",IC50 (Cavia porcellus [6]),IC50 (Cavia porcellus [5]),IC50 (Cavia porcellus [3])
COc1ccc(OCCCN(C)CCOc2ccc3c(c2)OCO3)c([C@H]2Sc3ccccc3N(C)C2=O)c1 [SEMOTIADIL],3.4,1.3,0.18 µM,0.23 µM,0.089 µM,0.068 µM,,
COc1ccc(OCCCN(C)CCOc2ccc3c(c2)OCO3)c(C2(C)Sc3ccccc3N(C)C2=O)c1 (stereo unspecified),,,,,2.1 µM,,,
COc1ccc(OCCCCN(C)CCOc2ccc3c(c2)OCO3)c(C2Sc3ccccc3N(C)C2=O)c1 (stereo unspecified),3.5,1.7,0.19 µM,0.33 µM,0.17 µM,0.094 µM,,
COc1ccc(OCCCCN(C)CCc2cc(OC)c(OC)c(OC)c2)c(C2Sc3ccccc3N(C)C2=O)c1 (stereo unspecified),,,,,0.35 µM,,,
COc1ccc(OCCCN(C)CCc2cc(OC)c(OC)c(OC)c2)c(C2Sc3ccccc3N(C)C2=O)c1 (stereo unspecified),4.6,6,0.4 µM,2.4 µM,0.27 µM,0.52 µM,,
COc1ccc(OCCCN(C)CCOc2ccc3c(c2)OCO3)c(C2CN(C)c3ccccc3S2)c1 (stereo unspecified),,,,,> 10 µM,,,
COc1ccc(OCCCN(C)CCOc2ccc3c(c2)OCO3)c(C2Sc3ccccc3N(C)C2=O)c1 (stereo in doubt; (-)-15),,,,,,,0.6 µM,
COc1ccc(OCCCN(C)CCOc2ccc3c(c2)OCO3)c(C2(OC)Sc3ccccc3N(C)C2=O)c1 (stereo unspecified),,,,,0.25 µM,,,
COc1ccc(OCCCN(C)CCOc2ccc3c(c2)OCO3)c(C2(SC)Sc3ccccc3N(C)C2=O)c1 (stereo unspecified),,,,,1.5 µM,,,
COc1ccc(OCCCN(C)CCOc2c(OC)cccc2OC)c(C2Sc3ccccc3N(C)C2=O)c1 (stereo unspecified),,,,,0.51 µM,,,
COc1ccc(OCCCN(C)CCOc2ccc3c(c2)OCO3)c(C2Sc3ccccc3N(C)C2=O)c1 (stereo in doubt; 15),2.1,1.1,0.59 µM,0.66 µM,,0.31 µM,0.18 µM,
COc1ccc(CCN(C)CCCC(C#N)(c2ccc(OC)c(OC)c2)C(C)C)cc1OC (stereo unspecified) [VERAPAMIL],17.7,3,,0.62 µM,,0.035 µM,,0.21 µM
COc1ccc(OCCCN(CCOc2ccc3c(c2)OCO3)C(C)C)c(C2Sc3ccccc3N(C)C2=O)c1 (stereo unspecified),,,,,1.9 µM,,,
COc1ccc(OCCCN(C)CCOc2ccc3c(c2)OCO3)c(C2Sc3ccccc3N(C)C2=S)c1 (stereo unspecified),,,,,> 10 µM,,,
COc1ccc(OCCN(C)CCCCOc2ccc(OC)cc2C2Sc3ccccc3N(C)C2=O)cc1 (stereo unspecified),,,,,0.53 µM,,,
COc1ccc(OCCCN(C)CCOc2ccc3c(c2)CCC3)c(C2Sc3ccccc3N(C)C2=O)c1 (stereo unspecified),,,,,> 10 µM,,,
COc1ccc(OCCCN(C)CCOc2cc(OC)c(OC)c(OC)c2)c(C2Sc3ccccc3N(C)C2=O)c1 (stereo unspecified),11.1,8.2,0.5 µM,4.1 µM,0.23 µM,0.37 µM,,
COc1ccc(OCCCN(C)CCOc2ccc3c(c2)OCO3)c(C2(C(C)C)Sc3ccccc3N(C)C2=O)c1 (stereo unspecified),,,,,> 10 µM,,,
COc1ccc([C@@H]2Sc3ccccc3N(CCN(C)C)C(=O)[C@@H]2OC(C)=O)cc1 [DILTIAZEM],47.4,7.5,0.6 µM,4.5 µM,,0.095 µM,,
COc1ccc(OCCCCN(C)CCOc2ccc(OC)c(OC)c2)c(C2Sc3ccccc3N(C)C2=O)c1 (stereo unspecified),6.6,4.8,0.6 µM,2.9 µM,0.23 µM,0.44 µM,,
COc1ccc(OCCCCN(C)CCOc2cc(OC)c(OC)c(OC)c2)c(C2Sc3ccccc3N(C)C2=O)c1 (stereo unspecified),7.5,7.9,0.19 µM,1.5 µM,0.16 µM,0.2 µM,,
COc1cc(OC)cc(OCCN(C)CCCOc2ccc(OC)cc2C2Sc3ccccc3N(C)C2=O)c1 (stereo unspecified),,,,,0.55 µM,,,
COc1ccc(OCCCNCCOc2ccc3c(c2)OCO3)c(C2Sc3ccccc3N(C)C2=O)c1 (stereo unspecified),,,,,0.49 µM,,,
